# Laboratory results: patent US20250275995A1, “NICOTINAMIDE RIBOSIDE DOSAGE REGIMEN FOR TREATING PARKINSON'S DISEASE” (VESTLANDETS INNOVASJONSSELSKAP AS (VIS), priority 2022, published 2025)
# Assays:
# Assay type in all cases: in vivo, human
# [1] = test system: individuals with newly diagnosed, drug-naïve PD; test: NADPARK phase I trial: tolerability of NR therapy (1000 mg per day, 30 days) in PD
# Procedure: (§1) The present inventors completed a phase I randomized, double blinded trial, aiming to assess the tolerability, cerebral bioavailability and molecular effects of NR therapy in PD. A total of 30 individuals with newly diagnosed, drug-naïve PD were randomized to NR 500 mg×2/day or placebo for 30 days (Cell Metab. 2022 Mar. 1; 34(3):396-407.e6).
# NR is well-tolerated. […] NR achieves brain penetration. […] While a significant NR-induced increase in cerebral NAD levels was detected at the group level, this effect was not uniform at the individual level.
# Parkinson's Disease (PD) [2] = test: NADPARK: clinical severity by MDS-UPDRS
# Procedure: as §1
# NR is associated with clinical improvement of PD. NR at 1000 mg daily was associated with a significant decrease in the total MDS-UPDRS (I-III) score between visits (mean decrease: 2.33±2.35; paired t-test: p=0.017).
# Parkinson's Disease (PD) [3] = test: NR-SAFE: MDS-UPDRS and Hoehn and Yahr scores
# Procedure: At screening for trial entry, candidates underwent physical and neurological examination. Enrolled participants were assessed by physical visits by a movement disorder specialist at baseline (visit 1, V1), day 7 (V4), day 14 (V5), day 21 (V6) and day 28 (V7). At baseline and day 28 participants underwent additional assessment with the Movement Disorder Society Unified Parkinson's disease Rating Scale section I-IV (MDS-UPDRS). At all physical visits an electrocardiogram (ECG), vital parameters (blood pressure, pulse, weight, height) and blood samples were obtained. Additional blood samples were taken on day 3 (V2) and day 5 (V3) to assess safety. The participants were interviewed by telephone consultation by a study nurse on day 3 and day 35 to screen for additional adverse events. Participants were instructed to take their anti-Parkinson drugs as they normally would and no changes were made to anti-Parkinson drug treatment during the trial. Adverse events (AEs) were recorded by the investigating physician. These were then classified by severity according to the Common Terminology Criteria for Adverse Events v5.0 (CTCAE)^13 as either mild (1), moderate (2), severe (3), life-threatening (4) or death (5). The AE relation to the study drug was scored as unrelated (1), unlikely (2), possible (3), probable (4) or definitely (5). 13 Freites-Martinez, A., Santana, N., Arias-Santiago, S. & Viera, A. Using the Common Terminology Criteria for Adverse Events (CTCAE—Version 5.0) to Evaluate the Severity of Adverse Events of Anticancer Therapies. Actas Dermosifiliogr (Engl Ed) 112, 90-92 (2021).
# NAD metabolome = test: NR-SAFE: LC-MS metabolomics of whole blood and urine
# Procedure: Sample analysis was carried out by MS-Omics (Vedbok, Denmark) as follows: Polar metabolite profiling of whole blood and urine was performed using a Thermo Scientific Vanquish LC coupled to Thermo Q Exactive HF MS. An electrospray ionization interface was used as ionization source. Analysis was performed in negative and positive ionization mode. The UPLC was performed using a slightly modified version of the protocol described by Hsiao et al. 2018^14. Peak areas were extracted using Compound Discoverer 3.3 (Thermo Scientific). 14 Hsiao, J. J., Potter, O. G., Chu, T. W. & Yin, H. Improved LC/MS Methods for the Analysis of Metal-Sensitive Analytes Using Medronic Acid as a Mobile Phase Additive. Anal Chem 90, 9457-9464 (2018).
# Semi-polar metabolite analysis of whole blood was carried out using a Thermo Scientific Vanquish LC coupled to Orbitrap Exploris 240 MS, Thermo Fisher Scientific. An electrospray ionization interface was used as ionization source. Analysis was performed in positive and negative ionization mode under polarity switching. The UPLC was performed using a slightly modified version of the protocol described by Doneanu et al., 2011^15. Peak areas were extracted using Compound Discoverer 3.3 (Thermo Scientific). 15 Doneanu, C. E. UPLC/MS Monitoring of Water-Soluble Vitamin Bs in Cell Culture Media in Minutes (Application note). https://www.waters.com/waters/library.htm?locale=en US&lid=134636355 (2011).
# Identification of compounds for both methods was performed at four levels; Level 1: identification by retention times (compared against in-house authentic standards), accurate mass (with an accepted deviation of 3 ppm), and MS/MS spectra; Level 2a: identification by retention times (compared against in-house authentic standards), accurate mass (with an accepted deviation of 3 ppm). Level 2b: identification by accurate mass (with an accepted deviation of 3 ppm), and MS/MS spectra, Level 3: identification by accurate mass alone (with an accepted deviation of 3 ppm).
# [4] = V1 (baseline), NR 3000 mg daily group, ±sd
# [5] = V7 (day 28), NR 3000 mg daily, ±sd
# [6] = LC-MS, V1 to V7, 3000 mg NR daily
# [7] = LC-MS, V1 to V7, NR group, 3000 mg NR daily
smiles,measurement,setting,value
"NC(=O)c1ccc[n+]([C@@H]2O[C@H](CO)[C@@H](O)[C@H]2O)c1 [NR, nicotinamide riboside]",serum homocysteine levels,"[1]; NR 1000 mg daily, Phase I study",no change in serum homocysteine levels
same,"compliance, tolerability, toxicity","[1]; NR 1000 mg per day, 30 days, PD","excellent compliance, tolerability and no signs of toxicity or adverse side effects"
same,mean decrease in total MDS-UPDRS (I-III) score between visits,"Parkinson's Disease (PD) [2]; NR 1000 mg daily, as stated in first sentence",2.33±2.35
same,change in MDS-UPDRS (total or subsections I-III),"Parkinson's Disease (PD) [2]; NR 1000 mg daily, whole NR group",No significant change
same,mean decrease in MDS-UPDRS,Parkinson's Disease (PD) [2]; nine individuals showing >10% increase in cerebral NAD levels,2.33±2.35
same,mean decrease in MDS-UPDRS,Parkinson's Disease (PD) [2]; subgroup of ten NR-recipients with increased cerebral NAD levels,1.9±2.78
same,"clinical symptoms of PD, measured by MDS-UPDRS","Parkinson's Disease (PD) [3]; NR 3000 mg daily, 4 weeks",significantly improved clinical symptoms of PD
same,Hoehn & Yahr score,Parkinson's Disease (PD) [3]; [4],2 ± 0.66
same,MDS-UPDRS Part I,Parkinson's Disease (PD) [3]; [4],7.8 ± 5.37
same,MDS-UPDRS Part II,Parkinson's Disease (PD) [3]; [4],9.4 ± 6.25
same,MDS-UPDRS Part III,Parkinson's Disease (PD) [3]; [4],29.7±12.85
same,MDS-UPDRS Part IV,Parkinson's Disease (PD) [3]; [4],4.1 ± 4.88
same,Total MDS-UPDRS,Parkinson's Disease (PD) [3]; [4],51±21.28
same,"total MDS-UPDRS, subgroup","Parkinson's Disease (PD) [3]; V1, subgroup of 8 participants with similar intervals since last levodopa dose, NR 3000 mg daily",46.62±17.76
same,Hoehn & Yahr score,Parkinson's Disease (PD) [3]; [5],2.1 ± 0.31
same,MDS-UPDRS Part I,Parkinson's Disease (PD) [3]; [5],5.6 ± 5.01
same,MDS-UPDRS Part II,Parkinson's Disease (PD) [3]; [5],8.8 ± 7.58
same,MDS-UPDRS Part III,Parkinson's Disease (PD) [3]; [5],22.7±7.55
same,MDS-UPDRS Part IV,Parkinson's Disease (PD) [3]; [5],3.2 ± 3.15
same,Total MDS-UPDRS,Parkinson's Disease (PD) [3]; [5],40.3±17.1
same,"total MDS-UPDRS, subgroup","Parkinson's Disease (PD) [3]; V7, subgroup of 8 participants with similar intervals since last levodopa dose, NR 3000 mg daily",35.75±11.74
same,"total MDS-UPDRS mean change, subgroup","Parkinson's Disease (PD) [3]; V7−V1, subgroup of 8 participants with similar intervals since last levodopa dose, NR 3000 mg daily",−10.87±11.15
same,"Hoehn & Yahr score, Δ","Parkinson's Disease (PD) [3]; Δ=V7−V1, NR 3000 mg daily, ±sd",0.1 ± 0.56
same,"MDS-UPDRS Part I, Δ","Parkinson's Disease (PD) [3]; Δ=V7−V1, NR 3000 mg daily, ±sd",−2.2 ± 3.52
same,"MDS-UPDRS Part II, Δ","Parkinson's Disease (PD) [3]; Δ=V7−V1, NR 3000 mg daily, ±sd",−0.6 ± 2.36
same,"MDS-UPDRS Part III, Δ","Parkinson's Disease (PD) [3]; Δ=V7−V1, NR 3000 mg daily, ±sd",−7 ± 7.98
same,"MDS-UPDRS Part IV, Δ","Parkinson's Disease (PD) [3]; Δ=V7−V1, NR 3000 mg daily, ±sd",−0.9 ± 2.60
same,"Total MDS-UPDRS, Δ (mean change)","Parkinson's Disease (PD) [3]; Δ=V7−V1, NR 3000 mg daily, ±sd",−10.7±9.94
same,"urine NAD-related metabolites (NAR, Nam, Me-Nam, Me-2-PY, Nam N-oxide)",NAD metabolome; [6],increase in several NAD-related metabolites
same,whole blood ADP-ribose (ADPR),NAD metabolome; [6],increase in NAD-derived signaling molecules such as ADP-ribose (ADPR)
same,"whole blood ATP, GTP, ADP, AMP, adenosine and GDP",NAD metabolome; [6],unchanged
same,"whole blood Nam, Nam N-oxide, Me-Nam, Me-2-PY",NAD metabolome; [6],increased as well
same,whole blood nicotinamide mononucleotide (NMN),NAD metabolome; [6],elevated levels
same,whole blood nicotinic acid adenine dinucleotide (NAAD),NAD metabolome; [6],elevated
same,NR itself in urine,NAD metabolome; [7],did not change significantly
same,NR itself in whole blood,NAD metabolome; [7],did not increase
same,"whole blood HCy, SAM, SAH, SAM/SAH ratio, methionine","NAD metabolome; LC-MS, V1 vs V7, 3000 mg NR daily",did not detect a change
same,depletion of the methyl-group pool,NAD metabolome; NR 3000 mg for 4 weeks,does not cause depletion of the methyl-group pool
same,whole blood NAD^+ and NADP^+ levels,"NAD metabolome; targeted LC-MS, V1 to V7, 3000 mg NR daily",significant increase in whole blood NAD^+ and NADP^+ levels
same,whole blood homocysteine (HCy),"NAD metabolome; targeted metabolomics, V1 vs V7, 3000 mg NR daily",did not show any HCy elevation
same,whole blood methionine levels,"NAD metabolome; untargeted metabolomics, 3000 mg NR daily",unaffected
same,whole blood betaine,"NAD metabolome; untargeted metabolomics, NR group, 3000 mg NR daily",decreased slightly
